Reference: publication PMC8148468, “Shikimic acid protects skin cells from UV-induced senescence through activation of the NAD+-dependent deacetylase SIRT1” (Aging (Albany NY), 2021)

Assays:
spliced-XBP1 = assay: Spliced XBP1 mRNA (qPCR); type: cell-based, human; settings: UVB-irradiated cells, SA treatment
Method: Figure 5 (A) Western-blot of BiP proteins levels in UVB or non UVB irradiated cells treated with SA at the indicated concentrations in presence or absence of EX-527 1 μM. (B) Quantification of n=3 experiments as (A). The levels of BiP are normalized by the loading control (histone H3) and represented related to the conditions in UVB irradiated cells in absence of SA and EX-527. Student T-test, *p<0.05. (C) Percentage of SA-β-Gal in assays performed as in Figure 3C. (D) Levels of spliced and unspliced XBP1 mRNA monitored by qPCR analysis in cells treated in the indicated conditions in presence or absence of SA and/or EX-527. The levels were normalized by internal controls and represented in each case related to the conditions in UVB irradiated cells in absence of SA and EX-527. […]
RNA was extracted from cell pellets using the Total RNA Purification Kit (Norgen, Canada), according to the manufacturer’s protocol. Extracted RNA was quantified using a NanoDrop® ND-1000 UV-Vis Spectrophotometer (Thermo Fisher Scientific, USA) and 300 ng of RNA were retrotranscribed to cDNA using the PrimeScriptTM RT reagent kit (Takara Bio Inc., Japan). cDNA was diluted 1/10 in ultrapure water and qPCR mix was prepared by adding cDNA (12 ng), SYBR green supermix (Bio Rad, USA), forward and reverse primers (0.2μM). […] The results were analyzed with Bio-Rad CFX Manager software. […]

[1] = test system: HAS2 (hyaluronic acid synthase 2); assay: UVB-induced senescence assay: HAS2 gene expression (qPCR); type: cell-based, human; settings: UVB-irradiated HDF
Method: In the second approach, we established a method for inducing senescence in these cells with 2 cycles of UVB irradiation 72h apart (Figure 2A). The use of UVA to induce senescence was discarded due to its considerably longer time requirement, being unsuitable to screen 30 compounds within a reasonable period. Cells were treated with these compounds throughout the duration of the assay and cellular senescence was monitored with two markers: accumulation of SA-β-galactosidase (SA-β-Gal) activity, and the decrease in expression of HAS2 (hyaluronic acid synthase 2), a previously reported marker of skin senescence.
Figure 2 (A) Schematic representation of the protocol for senescence induction using UVB irradiation. Cells were treated -/+ the compounds from day 1 to 7 after seeding, irradiated with UVB on days 2 and 5 and harvested for analysis on day 7. […] (C) Phase-contrast (left column) and bright field (right column) microscope images of SA-β-Gal staining showing non-irradiated cells, UVB-irradiated cells non-treated and treated with Gallic acid or Shikimic acid at the indicated concentrations. (D) Percentage of SA-β-Gal positive cells and (E) Relative HAS2 mRNA levels in non-irradiated cells, UVB-irradiated cells and UVB-irradiated cells treated with Gallic acid or Shikimic acid at the indicated concentrations. Student T-test, *p<0.05, **p<0.01, ***p<0.001.
RNA was extracted from cell pellets using the Total RNA Purification Kit (Norgen, Canada), according to the manufacturer’s protocol. Extracted RNA was quantified using a NanoDrop® ND-1000 UV-Vis Spectrophotometer (Thermo Fisher Scientific, USA) and 300 ng of RNA were retrotranscribed to cDNA using the PrimeScriptTM RT reagent kit (Takara Bio Inc., Japan). cDNA was diluted 1/10 in ultrapure water and qPCR mix was prepared by adding cDNA (12 ng), SYBR green supermix (Bio Rad, USA), forward and reverse primers (0.2μM). The primers and their respective sequences are listed in Supplementary Table 1. qPCR protocol included one step at 95° C for 30 s, 40 cycles at 95° C for 10s, and 60° C for 1min. The results were analyzed with Bio-Rad CFX Manager software. BACT was used as a housekeeping gene to normalize gene expression.
Senescence induction by UVB irradiation For the non-irradiation control conditions, HDF were […]
After 24h, culture medium was removed and well plates. After 24h, culture medium was removed replaced by fresh cell culture medium containing the and replaced with fresh cell culture medium containing compounds at different concentrations. After 24h, the compounds at different concentrations. […]
cell culture medium was removed, and cells were cells/plate in fresh cell culture medium containing the irradiated at 25 mJ/cm2 of UVB light (312 nm) in a Bio- compound in 6-well plates. After 3 days, cells were […]
amount of PBS. PBS was then removed and fresh cell fresh cell culture medium containing the compound in culture medium with the compound was added to each 6-well plates. After 2 days, cells were processed well. After 3 days, cells were irradiated again under the according to the qPCR, β-Gal staining, apoptosis, cell same conditions. After 2 days, cells were processed cycle or immunofluorescence protocols. according to the qPCR, β-Gal staining, apoptosis, cell cycle or immunofluorescence protocols.

O=C(O)C1=C[C@@H](O)[C@@H](O)[C@H](O)C1 [Shikimic acid]
spliced XBP1 mRNA levels (spliced-XBP1): induced a decrease in spliced-XBP1 | HAS2 expression [1]: increase in HAS2 expression
